Key:
[1] = target: T1, Human Neuropeptide Y2 Receptor (Homo sapiens, UniProt P49146); assay: Radioligand binding competition assay (RLB); settings: Table 3; human 125I-PYY (1-36) 0.02 nM, Y2 receptor membranes; read-out: Ki
T1 construct: purchased CHEMICON HTS066M
T1 sequence (P49146 1-381): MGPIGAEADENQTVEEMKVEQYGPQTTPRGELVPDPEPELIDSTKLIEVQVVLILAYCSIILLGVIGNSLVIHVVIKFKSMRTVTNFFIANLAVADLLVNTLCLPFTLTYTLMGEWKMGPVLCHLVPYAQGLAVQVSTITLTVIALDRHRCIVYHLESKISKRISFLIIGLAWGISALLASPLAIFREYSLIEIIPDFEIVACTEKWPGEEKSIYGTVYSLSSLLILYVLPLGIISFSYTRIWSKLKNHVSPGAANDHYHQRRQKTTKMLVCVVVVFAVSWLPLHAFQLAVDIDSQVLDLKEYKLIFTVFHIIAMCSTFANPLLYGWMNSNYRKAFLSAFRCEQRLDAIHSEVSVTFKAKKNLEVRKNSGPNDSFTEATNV
Outline: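 Competition binding at commercial human NPY Y2 membrane preparations, 0.5 μg protein per well, 2 h incubation at room temperature. Bound and free ligand were separated on GF/C filters and counted; IC50 was fitted by nonlinear regression.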

human NPY5 receptor = target: T2, human NPY5 receptor (Homo sapiens, UniProt Q15761); assay: HTRF cAMP Gi assay, hY5R
T2 sequence (Q15761 1-445): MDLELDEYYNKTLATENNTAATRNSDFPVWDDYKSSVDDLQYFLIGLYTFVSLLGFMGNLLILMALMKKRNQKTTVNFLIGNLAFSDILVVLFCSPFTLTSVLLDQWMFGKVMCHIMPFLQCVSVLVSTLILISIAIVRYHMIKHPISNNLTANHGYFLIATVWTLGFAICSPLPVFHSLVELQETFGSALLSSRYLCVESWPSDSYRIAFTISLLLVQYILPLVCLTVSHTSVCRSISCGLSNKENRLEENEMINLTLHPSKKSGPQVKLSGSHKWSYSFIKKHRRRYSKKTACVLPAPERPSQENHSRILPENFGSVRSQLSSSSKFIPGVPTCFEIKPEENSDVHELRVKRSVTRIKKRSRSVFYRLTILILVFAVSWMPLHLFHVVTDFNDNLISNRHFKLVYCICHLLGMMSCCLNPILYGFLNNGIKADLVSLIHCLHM

normal NMRI mice = assay: Effect on acute food intake in normal NMRI mice; type: in vivo; settings: male NMRI mice, 10 nmol/kg subcutaneously once
Outline: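 Male NMRI mice acclimatized in an HM-2 real-time food intake monitoring system, fasted 6 h before dark phase. Single subcutaneous dose of 10 nmol/kg peptide given 1 h before dark; n=7-8. Food intake expressed as % of vehicle group (50 mM phosphate pH7, 5% Mannitol).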

human NPY1 receptor = target: T3, human NPY1 receptor (Homo sapiens, UniProt P25929); assay: HTRF cAMP Gi assay, hY1R; type: cell-based; settings: Table 4; CHO-K1 cells
T3 construct: expressed in transfected cells; host or cells: CHO-K1
T3 sequence (P25929 1-384): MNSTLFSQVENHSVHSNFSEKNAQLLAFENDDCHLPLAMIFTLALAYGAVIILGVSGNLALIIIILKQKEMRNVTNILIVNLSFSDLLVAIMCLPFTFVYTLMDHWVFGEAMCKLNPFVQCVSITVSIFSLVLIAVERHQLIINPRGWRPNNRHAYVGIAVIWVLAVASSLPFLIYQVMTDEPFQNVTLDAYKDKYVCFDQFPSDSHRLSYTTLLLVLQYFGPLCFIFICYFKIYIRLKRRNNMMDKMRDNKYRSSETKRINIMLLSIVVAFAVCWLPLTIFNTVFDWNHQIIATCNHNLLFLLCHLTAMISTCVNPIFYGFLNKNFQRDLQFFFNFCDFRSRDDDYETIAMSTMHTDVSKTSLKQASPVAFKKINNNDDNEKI
Experimental: (§1) Briefly, the production of intracellular cAMP will generate a competition between unlabeled cAMP and exogenously added d2-cAMP for anti-cAMP antibodies conjugated to cryptate. CHO-K1 cells stably expressing the human NPY1, NPY2, NPY4 and NPY5 receptors were used with the cells brought to life from a frozen stock immediately before assay performance. 2000 cells per well were applied for all four NPY receptor subtype assays. A 384-well format was used applying a total volume of 20 μl using 5 μl cells, 2.5 μl peptide agonist, 2.5 μl forskolin and 5 μl of each of the fluorophores. […] Concentration-response evaluation of compounds was performed with 11 concentrations of agonist peptides (covering 3 decades). EC50 values were calculated by nonlinear regression using sigmoid concentration-response with variable slope.

human NPY2 receptor = target: T4, human NPY2 receptor (Homo sapiens, UniProt P49146); assay: HTRF cAMP Gi assay, hY2R
T4 sequence (P49146 1-381): T1 sequence (P49146 1-381)
Experimental: as §1

human NPY4 receptor = target: T5, human NPY4 receptor (Homo sapiens, UniProt P50391); assay: HTRF cAMP Gi assay, hY4R; type: cell-based; settings: Table 4; CHO-K1 cells
T5 construct: expressed in transfected cells; host or cells: CHO-K1
T5 sequence (P50391 whole entry): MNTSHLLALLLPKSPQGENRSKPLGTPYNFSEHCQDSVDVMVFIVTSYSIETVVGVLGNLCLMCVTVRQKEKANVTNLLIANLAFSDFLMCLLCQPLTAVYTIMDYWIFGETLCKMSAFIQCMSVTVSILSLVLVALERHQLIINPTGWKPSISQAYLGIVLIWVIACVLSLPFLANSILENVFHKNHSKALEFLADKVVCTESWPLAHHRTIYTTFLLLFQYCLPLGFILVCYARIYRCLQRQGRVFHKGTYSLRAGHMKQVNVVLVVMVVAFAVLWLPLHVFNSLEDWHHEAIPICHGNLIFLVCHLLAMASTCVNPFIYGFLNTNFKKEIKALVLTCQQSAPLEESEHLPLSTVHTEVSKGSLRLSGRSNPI
Text: The Homogenous Time Resolved fluorescence (HTRF) technology optimized for Gi coupled receptors has thoroughly been described in Cisbio cAMP Gi kit manual. Briefly, the production of intracellular cAMP will generate a competition between unlabeled cAMP and exogenously added d2-cAMP for anti-cAMP antibodies conjugated to cryptate. CHO-K1 cells stably expressing the human NPY1, NPY2, NPY4 and NPY5 receptors were used with the cells brought to life from a frozen stock immediately before assay performance. 2000 cells per well were applied for all four NPY receptor subtype assays. A 384-well format was used applying a total volume of 20 μl using 5 μl cells, 2.5 μl peptide agonist, 2.5 μl forskolin and 5 μl of each of the fluorophores. […] Concentration-response evaluation of compounds was performed with 11 concentrations of agonist peptides (covering 3 decades). EC50 values were calculated by nonlinear regression using sigmoid concentration-response with variable slope.

CC(C)CC(=O)N[C@@H](C)C(=O)N1CCC[C@H]1C(=O)N[C@@H](CCC(=O)O)C(=O)N[C@@H](CCCCNC(=O)COCCOCCNC(=O)COCCOCCNC(=O)CC[C@H](NC(=O)CCCCCCCCCCCCCCCCC(=O)O)C(=O)O)C(=O)N1CCC[C@H]1C(=O)N[C@@H](CCC(=O)O)C(=O)N[C@@H](CCC(=O)O)C(=O)N[C@@H](CC(=O)O)C(=O)N[C@@H](C)C(=O)N[C@@H](CCC(=O)O)C(=O)N1CCC[C@H]1C(=O)N[C@@H](CCC(=O)O)C(=O)N[C@@H](CCC(=O)O)C(=O)N[C@@H](CC(C)C)C(=O)N[C@@H](CCC(N)=O)C(=O)N[C@@H](CCC(N)=O)C(=O)N[C@@H](Cc1ccc(O)cc1)C(=O)N[C@@H](Cc1ccc(O)cc1)C(=O)N[C@H](C(=O)N[C@@H](CO)C(=O)N[C@@H](CC(C)C)C(=O)N[C@@H](CCCNC(=N)N)C(=O)N[C@@H](Cc1c[nH]cn1)C(=O)N[C@@H](Cc1ccc(O)cc1)C(=O)N[C@@H](Cc1ccc(O)cc1)C(=O)N[C@@H](CC(N)=O)C(=O)N[C@@H](Cc1c[nH]c2ccccc12)C(=O)N[C@@H](CC(C)C)C(=O)N[C@H](C(=O)N[C@@H](CCCNC(=N)N)C(=O)N[C@@H](CCC(N)=O)C(=O)N[C@@H](CCCNC(=N)N)C(=O)N[C@@H](Cc1ccc(O)cc1)C(N)=O)[C@@H](C)O)C(C)C [Compound 18, N{alpha-4}-(3-methylbutanoyl)-N{epsilon-7}-[2-(2-{2-[2-(2-{2-[(4S)-4-carboxy-4-(17-carboxyheptadecanamido)butanamido]ethoxy}ethoxy)acetamido]ethoxy}ethoxy)acetamido]-[4A,7K,9E,13E,18Q,19Q,22V,28Y,30W,31L]hPYY (4-36)]
Ki [1]: 3.71 nM
EC50 (human NPY5 receptor): > 5000 nM
Acute Food Intake 24 h [% vehicle] (normal NMRI mice): 58 % vehicle
EC50 (human NPY1 receptor): > 5000 nM
EC50 (human NPY2 receptor): 0.167 nM
EC50 (human NPY4 receptor): > 5000 nM

CC(C)CC(=O)N[C@@H](C)C(=O)N1CCC[C@H]1C(=O)N[C@@H](CCC(=O)O)C(=O)N[C@@H](CCCCNC(=O)COCCOCCNC(=O)COCCOCCNC(=O)CC[C@H](NC(=O)CCCCCCCCCCCCCCCCC(=O)O)C(=O)O)C(=O)N1CCC[C@H]1C(=O)N[C@@H](CCC(=O)O)C(=O)N[C@@H](CCC(=O)O)C(=O)N[C@@H](CCC(=O)O)C(=O)N[C@@H](C)C(=O)N[C@H](C(=O)N1CCC[C@H]1C(=O)N[C@@H](CCC(=O)O)C(=O)N[C@@H](CCC(=O)O)C(=O)N[C@@H](CC(C)C)C(=O)N[C@@H](CCC(N)=O)C(=O)N[C@@H](CCCNC(=N)N)C(=O)N[C@@H](Cc1ccc(O)cc1)C(=O)N[C@@H](Cc1ccc(O)cc1)C(=O)N[C@H](C(=O)N[C@@H](CO)C(=O)N[C@@H](CC(C)C)C(=O)N[C@@H](CCCNC(=N)N)C(=O)N[C@@H](Cc1c[nH]cn1)C(=O)N[C@@H](Cc1ccc(O)cc1)C(=O)N[C@@H](Cc1ccc(O)cc1)C(=O)N[C@@H](CC(N)=O)C(=O)N[C@@H](Cc1c[nH]c2ccccc12)C(=O)N[C@@H](CC(C)C)C(=O)N[C@H](C(=O)N[C@@H](CCCNC(=N)N)C(=O)N[C@@H](CCC(N)=O)C(=O)N[C@@H](CCCNC(=N)N)C(=O)N[C@@H](Cc1ccc(O)cc1)C(N)=O)[C@@H](C)O)C(C)C)[C@@H](C)O [Compound 41, N{alpha-4}-(3-methylbutanoyl)-N{epsilon-7}-[2-(2-{2-[2-(2-{2-[(4S)-4-carboxy-4-(17-carboxyheptadecanamido)butanamido]ethoxy}ethoxy)acetamido]ethoxy}ethoxy)acetamido]-[4A,7K,9E,11E,13T,18Q,22V,28Y,30W,31L]hPYY (4-36)]
Ki [1]: 3.22 nM
EC50 (human NPY5 receptor): > 5000 nM
Acute Food Intake 24 h [% vehicle] (normal NMRI mice): 44 % vehicle
EC50 (human NPY1 receptor): > 5000 nM
EC50 (human NPY2 receptor): 0.159 nM
EC50 (human NPY4 receptor): > 5000 nM

CC(C)CC(=O)N[C@@H](C)C(=O)N1CCC[C@H]1C(=O)N[C@@H](CCC(=O)O)C(=O)N[C@@H](CCCCNC(=O)COCCOCCNC(=O)COCCOCCNC(=O)CC[C@H](NC(=O)CCCCCCCCCCCCCCCCC(=O)O)C(=O)O)C(=O)N1CCC[C@H]1C(=O)N[C@@H](CCC(=O)O)C(=O)N[C@@H](CCC(=O)O)C(=O)N[C@@H](CCC(=O)O)C(=O)N[C@@H](C)C(=O)N[C@@H](CO)C(=O)N1CCC[C@H]1C(=O)N[C@@H](CCC(=O)O)C(=O)N[C@@H](CCC(=O)O)C(=O)N[C@@H](CC(C)C)C(=O)N[C@@H](CCC(N)=O)C(=O)N[C@@H](CCCNC(=N)N)C(=O)N[C@@H](Cc1ccc(O)cc1)C(=O)N[C@@H](Cc1ccc(O)cc1)C(=O)N[C@H](C(=O)N[C@@H](CO)C(=O)N[C@@H](CC(C)C)C(=O)N[C@@H](CCCNC(=N)N)C(=O)N[C@@H](Cc1c[nH]cn1)C(=O)N[C@@H](Cc1ccc(O)cc1)C(=O)N[C@@H](Cc1ccc(O)cc1)C(=O)N[C@@H](CC(N)=O)C(=O)N[C@@H](Cc1c[nH]c2ccccc12)C(=O)N[C@@H](CC(C)C)C(=O)N[C@H](C(=O)N[C@@H](CCCNC(=N)N)C(=O)N[C@@H](CCC(N)=O)C(=O)N[C@@H](CCCNC(=N)N)C(=O)N[C@@H](Cc1ccc(O)cc1)C(N)=O)[C@@H](C)O)C(C)C [Compound 46, N{alpha-4}-(3-methylbutanoyl)-N{epsilon-7}-[2-(2-{2-[2-(2-{2-[(4S)-4-carboxy-4-(17-carboxyheptadecanamido)butanamido]ethoxy}ethoxy)acetamido]ethoxy}ethoxy)acetamido]-[4A,7K,9E,11E,18Q,22V,28Y,30W,31L]hPYY (4-36)]
Ki [1]: 3.3 nM
EC50 (human NPY5 receptor): > 5000 nM
Acute Food Intake 24 h [% vehicle] (normal NMRI mice): 39 % vehicle
EC50 (human NPY1 receptor): > 5000 nM
EC50 (human NPY2 receptor): 0.152 nM
EC50 (human NPY4 receptor): > 5000 nM

CC(C)CC(=O)N[C@@H](C)C(=O)N1CCC[C@H]1C(=O)N[C@@H](CCC(=O)O)C(=O)N[C@@H](CCCCNC(=O)COCCOCCNC(=O)COCCOCCNC(=O)CC[C@H](NC(=O)CCCCCCCCCCCCCCCCC(=O)O)C(=O)O)C(=O)N1CCC[C@H]1C(=O)N[C@@H](CCC(=O)O)C(=O)N[C@@H](CCC(=O)O)C(=O)N[C@@H](CC(=O)O)C(=O)N[C@@H](C)C(=O)N[C@@H](CO)C(=O)N1CCC[C@H]1C(=O)N[C@@H](CCC(=O)O)C(=O)N[C@@H](CCC(=O)O)C(=O)N[C@@H](CC(C)C)C(=O)N[C@@H](CCC(N)=O)C(=O)N[C@@H](CCCNC(=N)N)C(=O)N[C@@H](Cc1ccc(O)cc1)C(=O)N[C@@H](Cc1ccc(O)cc1)C(=O)N[C@H](C(=O)N[C@@H](CO)C(=O)N[C@@H](CC(C)C)C(=O)N[C@@H](CCCNC(=N)N)C(=O)N[C@@H](Cc1c[nH]cn1)C(=O)N[C@@H](Cc1ccc(O)cc1)C(=O)N[C@@H](Cc1ccc(O)cc1)C(=O)N[C@@H](CC(N)=O)C(=O)N[C@@H](Cc1c[nH]c2ccccc12)C(=O)N[C@@H](CC(C)C)C(=O)N[C@H](C(=O)N[C@@H](CCCNC(=N)N)C(=O)N[C@@H](CCC(N)=O)C(=O)N[C@@H](CCCNC(=N)N)C(=O)N[C@@H](Cc1ccc(O)cc1)C(N)=O)[C@@H](C)O)C(C)C [Compound 54, N{alpha-4}-(3-methylbutanoyl)-N{epsilon-7}-[2-(2-{2-[2-(2-{2-[(4S)-4-carboxy-4-(17-carboxyheptadecanamido)butanamido]ethoxy}ethoxy)acetamido]ethoxy}ethoxy)acetamido]-[4A,7K,9E,18Q,22V,28Y,30W,31L]hPYY (4-36)]
Ki [1]: 0.95 nM
EC50 (human NPY5 receptor): > 5000 nM
Acute Food Intake 24 h [% vehicle] (normal NMRI mice): 42 % vehicle
EC50 (human NPY1 receptor): > 5000 nM
EC50 (human NPY2 receptor): 0.131 nM
EC50 (human NPY4 receptor): > 5000 nM

From patent publication US12559529B2, “NPY2 receptor agonists” (Boehringer Ingelheim International GmbH, priority 2019, dated 2026)
